Measured values reported in patent US20110060037A1, “USE OF NPY Y5 RECEPTOR ANTAGONISTS FOR THE PREVENTION OF PSYCHO-STIMULANT AND OPIOID ABUSE” (priority 2008, published 2011).

Tests used:
NMRI mice = assay: Acute self-administration: cocaine reinforcement; assay type: in vivo; conditions: vehicle p.o. pre-treated NMRI mice; inverted U-shaped curve
Y5-KO and WT mice = assay: Acute self-administration of cocaine in Y5-KO and WT mice; assay type: in vivo; conditions: inverted U-shaped curve, FIG. 4

Structure (SMILES): COC(=O)[C@H]1[C@@H](OC(=O)c2ccccc2)C[C@@H]2CC[C@H]1N2C [cocaine]
- cocaine dose at which self-administration reaches maximum (NMRI mice): 0.03 mg/kg/infusion
- cocaine dose at which self-administration reaches maximum (Y5-KO and WT mice): 0.03 mg/kg/infusion
